Results reported in a melting point compilation (Tetko et al.; mined from patent text by program, amines drawn as free bases though some values may be those of a salt).

Compound | melting point
CN1C(=O)CN(C(=O)NC2C3CC4CC(C3)CC2C4)C(c2ccccc2)c2ccccc21 (racemic) | 243 to 244 °C
O=c1cc[nH]c2c([N+](=O)[O-])cc(Cl)cc12 | 238 to 241 °C
CC(=O)c1c(C)sc(-c2ccncc2)c1C | 80 to 81 °C
COC(=O)C1=C(O)c2c(c3ccccc3n2C)S(=O)(=O)N1C | 189 to 190 °C
CCCCC(C)C(=O)C=P(c1ccccc1)(c1ccccc1)c1ccccc1 (stereo not drawn) | 107 to 109 °C
N#CC(c1ccc(F)cc1)c1ccc([N+](=O)[O-])cc1C(F)(F)F (stereo not drawn) | 68 °C
Cc1ccc(NC(=O)N(C)C(c2cnc(C(F)F)nc2Cl)C(C)C)cc1 (stereo not drawn) | 135 to 137 °C
NS(=O)(=O)c1ccccc1S | 113 to 140 °C
O=[N+]([O-])C=C(Cl)SCCCNS(=O)(=O)c1ccccc1 | 105 to 106 °C
CCOC(=O)N1CCN(c2ncc(F)c(SC)n2)CC1 | 110 to 112 °C
CC(C)(C(=O)O)C1CCN(Cc2ccccc2)CC1 | 195 °C
COC(=O)c1cc(C(=O)c2nc(Br)c3ccccn23)ccc1N | 230 °C
O=C(O)CCc1ccc(OCc2ccccc2)cc1 | 123 to 124 °C
CCOC(=O)c1c(N)n(C)c2ccccc12 | 132 to 134 °C
CC1(C)SC(c2cc3ccccc3o2)NC1C(=O)O (stereo not drawn) | 96 °C
CCCn1cc2c(C3C(=O)Nc4ccc(C#N)cc43)nc(NCc3cccnc3)nc2n1 (stereo not drawn) | 291 to 295 °C
O=C(O)CCC(Cc1ccccc1)(C(=O)C=Cc1ccc(Cl)cc1)c1ccccc1 (stereo not drawn) | 160 to 170 °C
C=CCNC(=O)N1C[C@@H](Oc2cccc(C(F)(F)F)c2)[C@@H]1C (relative stereo) | 55 to 57 °C
CNc1nc(-c2cccc(N(C)C(=O)c3ccccc3)c2)c2cc(OC)c(OC)cc2n1 | 198 to 200 °C
Cc1[nH]c2ccccc2c1C1=C(c2c(C)[nH]c3ccccc23)C(=O)N(C)C1=O | > 290 °C
Cc1cc(C=O)ccc1C(=O)Nc1ncc(Cl)cn1 | 169 to 172 °C
COc1ccc(-c2c3c(cc4ccc5c(c24)OCO5)C(=O)NCC3)cc1 | 245 to 247 °C
Cc1nc2ccc(CN(CCO)c3ccc(C(=O)NCc4cccc(C#N)c4)cc3)cc2c(=O)[nH]1 | 110 to 112 °C
CN1CCC(c2c[nH]c3ccc(-n4ccnn4)cc23)CC1 | 251 to 254 °C
CC(O)c1cc2c(n1C)C(=O)c1cccc(O)c1C2=O (stereo not drawn) | 219 to 220 °C

Compound | melting point
COc1ccccc1C1=NNNN1C(c1ccccc1)(c1ccccc1)c1ccccc1 | 165 to 170 °C
COc1ccc2c(c1[N+](=O)[O-])CN(C(=O)C(F)(F)F)CC(=O)N2C | 71 to 74 °C
CC(C)(C)OC(=O)NCc1ccc(CC(=O)Nc2ccc(Nc3cc(-c4cccc5c4oc4ccccc45)ncn3)cc2)cc1 | 238 to 240 °C
CCCCCCCCCCOc1ccc(C(=NO)c2cccc(C(=O)O)c2)cc1CCC(=O)O | 163 to 165 °C
O=c1cc(CCl)nc2sc(-c3ccccc3)nn12 | 201 to 202 °C
O=C1NC(c2ccccc2)(c2ccccc2)C(=O)N1CO | 185 to 189 °C
CC(C)c1ccc(N(Cc2ccc(F)cc2)C(=O)Nc2c(C(C)C)cccc2C(C)C)cc1 | 80 °C
NC(=O)c1ccc(NC2CCCN(Cc3ccccc3)CC2)c(Cl)c1 (stereo not drawn) | 174 to 175 °C
CNC(=O)NC(=O)C(CC1CCCC1)c1ccc(S(C)(=O)=O)c([N+](=O)[O-])c1 (stereo not drawn) | 241 to 242 °C
Cc1ccc(C(C)(C)C)c(SC2=C(O)CC(CCc3ccccc3)(c3ccc(OCCO)cc3)OC2=O)c1 (stereo not drawn) | 70 to 73 °C
COC(=O)C1=C(O)c2ccc3ccccc3c2S(=O)(=O)N1C | 229 to 230 °C
CCCc1c(OCc2ccc(C(=O)O)c(OCC)c2)ccc(C(C)=O)c1O | 145 to 150 °C
O=C(CC1CCC2(CC1)OOC1(CCCCCCCCCCC1)OO2)N1CCS(=O)(=O)CC1 | 170 to 172 °C
COc1ccc(C=CCO)cc1OC | 70 to 71 °C
CCCCCCC(O)C(=O)NCCS (stereo not drawn) | 83 to 84 °C
CCc1noc(-c2cn(-c3cccc(OCc4ccccc4)c3)cn2)n1 | 113 to 114 °C
Cc1ccc(C(=S)NN)cc1 | 140 to 142 °C
CC(NC(=O)Cc1cc(F)cc(F)c1)C(=O)NC1(F)NC(=O)Cc2ccccc21 (stereo not drawn) | 195 to 200 °C
CNc1nc(C#N)c(-c2ccncc2)s1 | 192 to 195 °C
CCOC(=O)C1=C(CSSc2ccccc2)NC(C)=C(C(=O)OC)C1c1cccc([N+](=O)[O-])c1 (stereo not drawn) | 132 to 133 °C
CC(C)(C)C(=O)C(O)C(OS(=O)(=O)C(F)(F)F)C1OC(O)(C(=O)C(C)(C)C)C(O)(C(=O)C(C)(C)C)C1(O)C(=O)C(C)(C)C (stereo not drawn) | 109 to 112 °C
COc1ccc(Nc2nc(N3CCOCC3)nc(-n3c(C(F)F)nc4c(OC)cccc43)n2)nn1 | 256 to 259 °C
CCOC1CN2CCC1CC2 (stereo not drawn) | 96 to 98 °C
CC1(CCCOc2ccc([N+](=O)[O-])c(C=C3NC(=O)NC3=O)c2)OCCO1 | 175 to 180 °C
Nc1cc(N2CC(c3cccs3)OC2=O)ccn1 (stereo not drawn) | 151 to 153 °C

Compound | melting point
COc1ccc([C@H]2Cc3c(cccc3C(F)(F)F)NC(=O)[C@H]2OC(=O)c2ccccc2C(=O)O)cc1 (relative stereo) | 161 to 162 °C
CCOC(=O)c1c(C)[nH]c(-c2ccncc2)c1C | 180 to 182 °C
O=C([C@@H](Cc1ccc(Cl)cc1)NC1CCC(O)(c2ccc(F)cc2)CC1)N1CCC(Cn2cncn2)(C2CCCCC2)CC1 (stereo partly drawn) | 150 °C
N#Cc1cccc(Oc2ncccc2C(=O)NCc2ccc(-c3cccc(C(=O)O)c3)cc2F)c1 | 200 to 202 °C
CC(=O)Nc1ccc(SCC(OS(C)(=O)=O)C(C)(C)C)cc1 (stereo not drawn) | 123 to 124 °C
CC(C)Nc1ccc(-c2ncc(C(F)(F)F)cc2Cl)cc1N | 116 to 117 °C
CCc1c(NC(=O)c2cc(S(C)(=O)=O)ccc2OCC(C)C)c(C(N)=O)nn1Cc1nccn1C | 201 to 206 °C
COc1cc(NC(C)=O)ccc1C=NNC(=N)NN=Cc1ccc(NC(C)=O)cc1OC | 287 to 288 °C
Cc1ccc(S(=O)(=O)OC2=C(Br)C(=O)c3ccc4c(c3C2=O)CCC(C)(C)O4)cc1 | 168 to 170 °C
CCOC(=O)Nc1nc(=O)n(CC2CC2)cc1F | 90 to 92 °C
Cc1c(C(=O)Nc2ccc(N3CCCN(CCO)CC3)c(C#N)c2)cnn1-c1ccc(F)cc1 | 124 °C
O=C1C=C(Nc2ccccc2F)CCN1 | 98 to 100 °C
O=C(NCc1ccc(Cl)cc1)c1nn(-c2ccccc2)c2sc(CN3CCOCC3)cc2c1=O | 182 to 184 °C
COc1ccc(CS(=O)(=O)c2cc3ccccc3oc2=O)cc1 | 194 to 195 °C
CC(C)C(c1ccc(O)cc1)N1CCOCC1 (stereo not drawn) | 142 to 143 °C
CC(=O)Nc1nc(Cl)c2ncn(COC(COC(C)=O)COC(C)=O)c2n1 | 139 to 140 °C
CCOC1=CC2=CC[C@@H]3[C@H](CC[C@]4(CC)C(=O)C=C[C@@H]34)[C@H]2CC1 | 137 °C
CC(C)(C)c1cc(C[PH](=O)O)cc(C(C)(C)C)c1O | 147 to 149 °C
CC(=O)S[C@@H](CCN1C(=O)CCC1=O)C(=O)O | 110 to 112 °C
O=C1COc2ccc(C3=CN=C(c4ccccc4)SC3c3ccccc3)cc2N1 (stereo not drawn) | 231 to 233 °C
CCOc1cccc(COc2ccc3c(c2)C=C(C(=O)O)CCS3(=O)=O)c1 | 150 to 154 °C
CS(=O)(=O)N1CCSc2cccc(F)c2C1 | 115 to 117 °C
O=C(CCCCCCCCCCC(=O)Oc1cc(O)cc(O)c1)Oc1cc(O)cc(O)c1 | 140 to 145 °C
O=C(O)c1ccccc1N1CCN(CC(O)COc2cccc3ccccc23)CC1 (stereo not drawn) | 215 to 218 °C
N=C(N)NCCc1ccc(OCCC2Oc3ccccc3N(Cc3cccc4ccccc34)C2=O)cc1 (stereo not drawn) | 75 to 80 °C

Compound | melting point
CC(=O)/C=C(\C)c1ccc(-c2ccccc2F)cc1 | 92 °C
Cc1cc(=O)c(-c2ccc(Oc3cccc(OC(F)(F)F)c3)cc2)c(C)[nH]1 | 244 to 246 °C
O=C(CCC1CCN(Cc2ccccc2)CC1)c1ccc(F)cc1 | 65 to 67 °C
Fc1ccc(-c2ccc(CCNc3ncnc4nccnc34)cc2)cn1 | 184 to 186 °C
CCc1c(Cc2ccccc2)n(COCCO)c(=O)[nH]c1=O | 120 to 122 °C
O=C1NCCN1c1cn(-c2cccnc2)nc1Cl | 167 to 170 °C
COc1cc2c(cc1Nc1ncc(Cl)c(Nc3ccccc3S(=O)(=O)N3CCCC3)n1)CCN(CC(=O)N(C)C)CC2 | 67 to 74 °C
O=c1c2cccnc2n(-c2cccc([N+](=O)[O-])c2)c(=O)n1CCO | 212 to 213 °C
CC(=O)NC[C@H]1CN(c2ccc(N3CCC(O)(CC#N)CC3)c(F)c2)C(=O)O1 | 162 to 164 °C
CC1=CN(c2ccc(Cl)c(Cl)c2)SC1 | 160 to 161 °C
N=C(N)NNC(=O)c1cccc(-c2csc(N=C(N)N)n2)n1 | 194 to 196 °C
N#CC(Cc1ccccc1)(Cc1ccccc1)C(=O)O | 194 °C
COC(=O)c1nc(-c2ccc(Cl)c(OC)c2F)nc(N)c1C(C)F (stereo not drawn) | 150 to 152 °C
CC(=O)OCc1ccc2oc(=O)c(C(=O)Oc3ccccc3I)cc2c1 | 156 to 158 °C
COc1ccccc1N1CCN(CCCC2(c3ccc(F)cc3)OCc3cc(C#N)ccc32)CC1 (stereo not drawn) | 147 to 149 °C
CCOC(=O)c1cnccc1CSc1nc(C)c(CC(=O)O)s1 | 139 to 141 °C
CC12CCCCC1(O)CCC1C2CCC2(C)C1CC13OCCOC12OCCO3 (stereo not drawn) | 160 to 162 °C
O=C1N(CCc2noc(C(F)(F)F)n2)c2ccccc2C12COc1cc3c(cc12)OCO3 (stereo not drawn) | 45 to 48 °C
CC(C)[C@@H]1O[C@](C#CC2CC2)(C(F)(F)F)c2cc(Cl)ccc2NC1=O (relative stereo) | 167 °C
Cc1ccc(-c2nc(-c3nn(Cc4ccccc4F)c4ncccc34)ncc2C#N)cc1 | 229 °C
CCOc1ccc(N(C)CCCN)cc1 | 97 to 98 °C
O=C1CCC(CCc2ccc(-n3ccnc3)cc2)=NN1 | 195 to 196 °C
O=C1NN=C(c2ccc(C(F)(F)F)cc2)CC1C(F)(F)F (stereo not drawn) | 135 to 136 °C
